Test results: PubChem BioAssay (NCI)
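A five-concentration, 48-hour dose response in 96-well plates underlies each endpoint, interpolated linearly between surrounding concentrations. At the TGI there is no net growth.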

What was measured:
Experiment in all cases: NCI tumour cell line growth inhibition, 48 h
MDA-MB-231 breast = system: MDA-MB-231 breast
SK-OV-3 ovarian = system: SK-OV-3 ovarian
MOLT-4 leukemia = system: MOLT-4 leukemia
786-0 renal = system: 786-0 renal
SK-MEL-2 melanoma = system: SK-MEL-2 melanoma
MALME-3M melanoma = system: MALME-3M melanoma
NCI-H522 lung = system: NCI-H522 lung
MCF7 breast = system: MCF7 breast
U251 CNS = system: U251 CNS
PC-3 prostate = system: PC-3 prostate
CAKI-1 renal = system: CAKI-1 renal
HT29 colon = system: HT29 colon
NCI-H460 lung = system: NCI-H460 lung
NCI-H226 lung = system: NCI-H226 lung
OVCAR-4 ovarian = system: OVCAR-4 ovarian
KM12 colon = system: KM12 colon
RPMI-8226 leukemia = system: RPMI-8226 leukemia
CCRF-CEM leukemia = system: CCRF-CEM leukemia
SF-295 CNS = system: SF-295 CNS
SF-268 CNS = system: SF-268 CNS
EKVX NSCLC = system: EKVX NSCLC
NCI-H23 lung = system: NCI-H23 lung
HCT-15 colon = system: HCT-15 colon
DU-145 prostate = system: DU-145 prostate
HCT-116 colon = system: HCT-116 colon
ACHN renal = system: ACHN renal
COLO 205 colon = system: COLO 205 colon
SK-MEL-5 melanoma = system: SK-MEL-5 melanoma
UO-31 renal = system: UO-31 renal
SNB-19 CNS = system: SNB-19 CNS
UACC-257 melanoma = system: UACC-257 melanoma
OVCAR-3 ovarian = system: OVCAR-3 ovarian
T-47D breast = system: T-47D breast
HCC-2998 colon = system: HCC-2998 colon
SN12C renal = system: SN12C renal
HL-60(TB) leukemia = system: HL-60(TB) leukemia
SW-620 colon = system: SW-620 colon
BT-549 breast = system: BT-549 breast
NCI/ADR-RES ovarian = system: NCI/ADR-RES ovarian
M14 melanoma = system: M14 melanoma
OVCAR-5 ovarian = system: OVCAR-5 ovarian
SNB-75 CNS = system: SNB-75 CNS
HOP-92 NSCLC = system: HOP-92 NSCLC
SF-539 CNS = system: SF-539 CNS
LOX IMVI melanoma = system: LOX IMVI melanoma
MDA-N = system: MDA-N
UACC-62 melanoma = system: UACC-62 melanoma
OVCAR-8 ovarian = system: OVCAR-8 ovarian
A498 renal = system: A498 renal
MDA-MB-435 = system: MDA-MB-435
SK-MEL-28 melanoma = system: SK-MEL-28 melanoma
HS 578T breast = system: HS 578T breast
A549 NSCLC = system: A549 NSCLC
IGROV1 ovarian = system: IGROV1 ovarian
TK-10 renal = system: TK-10 renal
RXF 393 renal = system: RXF 393 renal
HOP-62 NSCLC = system: HOP-62 NSCLC
K-562 leukemia = system: K-562 leukemia
SR leukemia = system: SR leukemia

## C/C=C1/CN2CCC34C(=C(C(=O)OC)C1CC23)Nc1ccc(O)cc14 (centres undefined)
MDA-MB-231 breast
  TGI: > 100 µM
SK-OV-3 ovarian
  TGI: > 100 µM
MOLT-4 leukemia
  TGI: > 100 µM
786-0 renal
  TGI: > 100 µM
SK-MEL-2 melanoma
  TGI: > 100 µM
MALME-3M melanoma
  TGI: > 100 µM
NCI-H522 lung
  TGI: > 100 µM
MCF7 breast
  TGI: > 100 µM
U251 CNS
  TGI: > 100 µM
PC-3 prostate
  TGI: > 100 µM
CAKI-1 renal
  TGI: > 100 µM
HT29 colon
  TGI: > 100 µM
NCI-H460 lung
  TGI: > 100 µM
NCI-H226 lung
  TGI: > 100 µM
OVCAR-4 ovarian
  TGI: > 100 µM
KM12 colon
  TGI: > 100 µM
RPMI-8226 leukemia
  TGI: > 100 µM
CCRF-CEM leukemia
  TGI: > 100 µM
SF-295 CNS
  TGI: > 100 µM
SF-268 CNS
  TGI: > 100 µM
EKVX NSCLC
  TGI: > 100 µM
NCI-H23 lung
  TGI: > 100 µM
HCT-15 colon
  TGI: > 100 µM
DU-145 prostate
  TGI: > 100 µM
HCT-116 colon
  TGI: > 100 µM
ACHN renal
  TGI: > 100 µM
COLO 205 colon
  TGI: > 100 µM
SK-MEL-5 melanoma
  TGI: > 100 µM
UO-31 renal
  TGI: > 100 µM
SNB-19 CNS
  TGI: > 100 µM
UACC-257 melanoma
  TGI: > 100 µM
OVCAR-3 ovarian
  TGI: > 100 µM
T-47D breast
  TGI: > 100 µM
HCC-2998 colon
  TGI: > 100 µM
SN12C renal
  TGI: > 100 µM
HL-60(TB) leukemia
  TGI: > 100 µM
SW-620 colon
  TGI: > 100 µM
BT-549 breast
  TGI: > 100 µM
NCI/ADR-RES ovarian
  TGI: > 100 µM
M14 melanoma
  TGI: > 100 µM
OVCAR-5 ovarian
  TGI: > 100 µM
SNB-75 CNS
  TGI: > 100 µM
HOP-92 NSCLC
  TGI: > 100 µM
SF-539 CNS
  TGI: > 100 µM
LOX IMVI melanoma
  TGI: > 100 µM
MDA-N
  TGI: > 100 µM
UACC-62 melanoma
  TGI: > 100 µM
OVCAR-8 ovarian
  TGI: > 100 µM
A498 renal
  TGI: > 100 µM
MDA-MB-435
  TGI: > 100 µM
SK-MEL-28 melanoma
  TGI: > 100 µM
HS 578T breast
  TGI: > 100 µM
A549 NSCLC
  TGI: > 100 µM
IGROV1 ovarian
  TGI: > 100 µM
TK-10 renal
  TGI: > 100 µM

## O=C(N/N=C(/COc1ccccc1)N=Cc1ccncc1)c1ccncc1
MDA-MB-231 breast
  TGI: > 100 µM
SK-OV-3 ovarian
  TGI: > 100 µM
MOLT-4 leukemia
  TGI: > 100 µM
786-0 renal
  TGI: > 100 µM
SK-MEL-2 melanoma
  TGI: > 100 µM
MCF7 breast
  TGI: > 100 µM
U251 CNS
  TGI: > 100 µM
PC-3 prostate
  TGI: > 100 µM
CAKI-1 renal
  TGI: > 100 µM
HT29 colon
  TGI: > 100 µM
NCI-H460 lung
  TGI: > 100 µM
OVCAR-4 ovarian
  TGI: > 100 µM
KM12 colon
  TGI: > 100 µM
RPMI-8226 leukemia
  TGI: > 100 µM
CCRF-CEM leukemia
  TGI: > 100 µM
SF-295 CNS
  TGI: > 100 µM
SF-268 CNS
  TGI: > 100 µM
RXF 393 renal
  TGI: > 100 µM
EKVX NSCLC
  TGI: > 100 µM
NCI-H23 lung
  TGI: > 100 µM
HCT-15 colon
  TGI: > 100 µM
DU-145 prostate
  TGI: > 100 µM
HCT-116 colon
  TGI: > 100 µM
ACHN renal
  TGI: > 100 µM
COLO 205 colon
  TGI: > 100 µM
SNB-19 CNS
  TGI: > 100 µM
UACC-257 melanoma
  TGI: > 100 µM
OVCAR-3 ovarian
  TGI: > 100 µM
T-47D breast
  TGI: > 100 µM
HCC-2998 colon
  TGI: > 100 µM
SN12C renal
  TGI: > 100 µM
HL-60(TB) leukemia
  TGI: > 100 µM
SW-620 colon
  TGI: > 100 µM
BT-549 breast
  TGI: > 100 µM
NCI/ADR-RES ovarian
  TGI: > 100 µM
M14 melanoma
  TGI: > 100 µM
OVCAR-5 ovarian
  TGI: > 100 µM
SNB-75 CNS
  TGI: > 100 µM
HOP-62 NSCLC
  TGI: > 100 µM
HOP-92 NSCLC
  TGI: > 100 µM
SF-539 CNS
  TGI: > 100 µM
LOX IMVI melanoma
  TGI: > 100 µM
MDA-N
  TGI: > 100 µM
UACC-62 melanoma
  TGI: > 100 µM
OVCAR-8 ovarian
  TGI: > 100 µM
A498 renal
  TGI: > 100 µM
MDA-MB-435
  TGI: > 100 µM
K-562 leukemia
  TGI: > 100 µM
SK-MEL-28 melanoma
  TGI: > 100 µM
HS 578T breast
  TGI: > 100 µM
A549 NSCLC
  TGI: > 100 µM
IGROV1 ovarian
  TGI: > 100 µM
TK-10 renal
  TGI: > 100 µM

## COc1ccc2[nH]c3cc4c(=O)c5cc(OC)ccc5[nH]c4cc3c(=O)c2c1
MDA-MB-231 breast
  TGI: > 100 µM
SK-OV-3 ovarian
  TGI: > 100 µM
MOLT-4 leukemia
  TGI: > 100 µM
786-0 renal
  TGI: > 100 µM
SK-MEL-2 melanoma
  TGI: > 100 µM
MALME-3M melanoma
  TGI: > 100 µM
NCI-H522 lung
  TGI: > 100 µM
MCF7 breast
  TGI: > 100 µM
U251 CNS
  TGI: > 100 µM
PC-3 prostate
  TGI: > 100 µM
CAKI-1 renal
  TGI: > 100 µM
HT29 colon
  TGI: > 100 µM
NCI-H460 lung
  TGI: > 100 µM
NCI-H226 lung
  TGI: > 100 µM
OVCAR-4 ovarian
  TGI: > 100 µM
KM12 colon
  TGI: > 100 µM
RPMI-8226 leukemia
  TGI: > 100 µM
SF-295 CNS
  TGI: > 100 µM
SF-268 CNS
  TGI: > 100 µM
RXF 393 renal
  TGI: > 100 µM
EKVX NSCLC
  TGI: > 100 µM
NCI-H23 lung
  TGI: > 100 µM
HCT-15 colon
  TGI: > 100 µM
DU-145 prostate
  TGI: > 100 µM
HCT-116 colon
  TGI: > 100 µM
ACHN renal
  TGI: > 100 µM
COLO 205 colon
  TGI: > 100 µM
SK-MEL-5 melanoma
  TGI: > 100 µM
UO-31 renal
  TGI: > 100 µM
SNB-19 CNS
  TGI: > 100 µM
UACC-257 melanoma
  TGI: > 100 µM
OVCAR-3 ovarian
  TGI: > 100 µM
T-47D breast
  TGI: > 100 µM
HCC-2998 colon
  TGI: > 100 µM
SN12C renal
  TGI: > 100 µM
HL-60(TB) leukemia
  TGI: 36.2 µM
SW-620 colon
  TGI: > 100 µM
BT-549 breast
  TGI: > 100 µM
NCI/ADR-RES ovarian
  TGI: > 100 µM
M14 melanoma
  TGI: > 100 µM
OVCAR-5 ovarian
  TGI: > 100 µM
SNB-75 CNS
  TGI: 67.5 µM
SR leukemia
  TGI: > 100 µM
HOP-62 NSCLC
  TGI: > 100 µM
HOP-92 NSCLC
  TGI: > 100 µM
MDA-N
  TGI: > 100 µM
UACC-62 melanoma
  TGI: > 100 µM
OVCAR-8 ovarian
  TGI: > 100 µM
A498 renal
  TGI: > 100 µM
MDA-MB-435
  TGI: > 100 µM
K-562 leukemia
  TGI: > 100 µM
SK-MEL-28 melanoma
  TGI: > 100 µM
HS 578T breast
  TGI: > 100 µM
A549 NSCLC
  TGI: > 100 µM
IGROV1 ovarian
  TGI: > 100 µM
TK-10 renal
  TGI: > 100 µM
